From patent US20100324086A1, “COMPOUNDS AND METHODS” (Novasaid AB, priority 2008, published 2010)

Tests used:
[1] = target: T1, recombinant, membrane-bound mPGES-1 (Homo sapiens, UniProt O14684); experiment: Thiobarbituric acid assay (TBA-MDA assay), inhibition of mPGES-1; assay type: biochemical; details: remaining PGH2 measured at 535 nm
T1 sequence (O14684 1-152): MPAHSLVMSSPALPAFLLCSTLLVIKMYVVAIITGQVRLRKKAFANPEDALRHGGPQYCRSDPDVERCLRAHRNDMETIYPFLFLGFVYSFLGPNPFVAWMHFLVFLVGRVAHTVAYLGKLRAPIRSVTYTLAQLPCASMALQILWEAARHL
Source text: Malondialdehyde is a product of lipid peroxidation and reacts with thiobarbituric acid forming a red product that absorbs at 535 nm (W. G. Niehaus, Jr and B. Samuelsson, Eur. J. Biochem 6, 126 (1968). The extinction coefficient of the TBA-MDA conjugate is 1.56×10^5 M^−1 cm^−1 (E. D. Wills. Biochem. J. 113, 315 (1969).
The method used for detection of inhibition of mPGES-1 is based on the detection of the amount of remaining PGH2. This method was described more than 20 years ago by Basevich et al (Bioorg. Khim. 1983, 9(5), 658-665.
The assay used was a modified variant and used citric acid instead of the TCA-TBA-HCl reagent described in the original assay. In this assay recombinant, membrane-bound mPGES-1 was incubated with PGH2. The reaction was stopped by adding citric acid with a final pH of 3 and a large excess of FeCl2 (20 mM) to convert any remaining PGH2 into MDA and […]. TBA reagent was finally added (0.67%) and the samples were heated at 80° C. for 30 min. The absorbance of the conjugate was measured at 535 nm.
The product of mPGES-1 (PGE2) was not measured directly in this assay, but rather the remaining substrate (PGH2) indirectly by adding FeCl2 that converts PGH2 into […] and 12-HHT. As a positive control a known mPGES-1 inhibitor, MK-886, was used and the new inhibitors were compared with the inhibition of MK-886 (% of MK-886 inhibition).

[2] = test system: A549 lung carcinoma cells; experiment: A549 assay, PGE2 content in supernatant by EIA; assay type: cell-based; details: Homo sapiens, A549; TNFalfa and IL-1beta induced 16 h; 30 min compound, then 10 μM arachidonic acid 30 min
Protocol: A549 lung carcinoma cells, seeded at a density of 10,000 cells/well, were grown in 96 well tissue culture plates. TNFalfa (5 ng/ml) and […] (5 ng/ml) were added and the cells were incubated for 16 hours. Cells were washed in PBS and test compounds at the appropriate concentration in HBSS/0.1% BSA were added. After 30 minutes incubation with test compounds, 10 μM arachidonic acid was added and cells were further incubated for 30 minutes. Supernatant was collected and analyzed for PGE2 content by EIA according to manufacturer's instructions.

| SMILES | IC50 [1] [nM] | EC50 [2] [nM] |
| --- | --- | --- |
| O=C(NCc1cccc2ccccc12)c1cccc(NC(=O)c2ccccc2Cl)c1 [Compound 117, 2-Chloro-N-{3-[(naphthalen-1-ylmethyl)-carbamoyl]-phenyl}-benzamide] | 260 | 1480 |
| O=C(Nc1ccc(C(F)(F)F)cn1)c1cccc(NC(=O)c2ccccc2C(F)(F)F)c1 [Compound 153, 3-[2-(Trifluoromethyl)-benzoylamino]-N-(5-trifluoromethyl-pyridine-2-yl)-benzamide] | 49 | 500 |
